Source: patent publication US20120004166A1, “ARYLOXYALKYLENE-SUBSTITUTED HYDROXYPHENYLHEXYNOIC ACIDS, PROCESS FOR PREPARATION THEREOF AND USE THEREOF AS A MEDICAMENT” (SANOFI, priority 2010, published 2012)

Target: T1, GPCR GPR40 (Rattus norvegicus, UniProt Q8K3T4)
T1 construct: expressed in transfected cells; host or cells: HEK293
Test: In vitro FLIPR assay with recombinant cells which express the GPCR GPR40
Assay type: cell-based
Conditions: recombinant HEK293 cells expressing rat GPR40; agonist-induced change in intracellular Ca2+ (Fluo-4, FLIPR); 100% = 10 μM linoleic acid
Description: In Vitro FLIPR Assay with Recombinant Cells which Express the GPCR GPR40
Function-testing assays were performed by means of the FLIPR technique (“Fluorescence Imaging Plate Reader”, Molecular Devices Corp.). To this end, agonist-induced changes in the intracellular concentration of Ca^2+ were determined in recombinant HEK293 cells which expressed the GPCR GPR40 (species: rat). For the studies, cells were sown into 96-well microtiter plates (60 000 cells/well) and left to grow overnight. The medium was removed and the cells were incubated in buffer which contained the fluorescent dye Fluo-4. After this loading with dye, the cells were washed, test substance was added and changes in the intracellular Ca^2+ concentration were measured in the FLIPR unit. Results were presented as the percentage change relative to the control (0%: no test substance added; 100%: 10 μM reference agonist linoleic acid added) and used to calculate dose/effect curves, and EC50 values were determined.

T1 sequence (Q8K3T4 whole entry): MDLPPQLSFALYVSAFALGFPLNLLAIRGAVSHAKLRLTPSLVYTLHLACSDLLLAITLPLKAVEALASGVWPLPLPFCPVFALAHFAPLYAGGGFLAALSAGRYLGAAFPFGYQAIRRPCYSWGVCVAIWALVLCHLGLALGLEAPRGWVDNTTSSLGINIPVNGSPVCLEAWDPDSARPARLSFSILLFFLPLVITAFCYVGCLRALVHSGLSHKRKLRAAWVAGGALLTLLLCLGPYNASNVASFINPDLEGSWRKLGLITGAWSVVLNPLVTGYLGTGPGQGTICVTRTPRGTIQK

EC50	SMILES
550 nM	CC#CC(CC(=O)O)c1ccc(OCC(COC)COc2ccc(C#N)c(Cl)c2)cc1 (centres unmarked) [Example 50, 3-{4-[3-(3-Chloro-4-cyanophenoxy)-2-methoxymethylpropoxy]phenyl}hex-4-ynoic acid]
110 nM	CC#CC(CC(=O)O)c1ccc(OCCCOc2ccc(C(F)(F)F)cc2Cl)cc1 (centres unmarked) [Example 4, 3-{4-[3-(2-chloro-4-trifluoromethylphenoxy)propoxy]phenyl}hex-4-ynoic acid]
8740 nM	CC#CC(CC(=O)O)c1ccc(OCC(COc2cccc(C(C)(C)C)c2)c2ccccc2)cc1 (centres unmarked) [Example 47, 3-{4-[3-(3-tert-Butylphenoxy)-2-phenylpropoxy]phenyl}hex-4-ynoic acid]
350 nM	CC#CC(CC(=O)O)c1ccc(OCCCOc2ccc(C(F)(F)F)nc2)cc1 (centres unmarked) [Example 8, 3-{4-[3-(6-Trifluoromethylpyridin-3-yloxy)propoxy]phenyl}hex-4-ynoic acid]
40 nM	CC#CC(CC(=O)O)c1ccc(OCCOc2cccc(Cl)c2)cc1 (centres unmarked) [Example 13]
610 nM	CC#CC(CC(=O)O)c1ccc(OCCOc2ccc(C(C)(C)C)cc2)cc1 (centres unmarked) [Example 16, 3-{4-[2-(4-tert-Butylphenoxy)ethoxy]phenyl}hex-4-ynoic acid]
60 nM	CC#CC(CC(=O)O)c1ccc(OCCOc2cccc(C(F)(F)F)c2)cc1 (centres unmarked) [Example 15, 3-{4-[2-(3-Trifluoromethylphenoxy)ethoxy]phenyl}hex-4-ynoic acid]
2400 nM	CC#CC(CC(=O)O)c1ccc(OCC(COCC2CC2)COc2ccc(C#N)c(Cl)c2)cc1 (centres unmarked) [Example 51, 3-{4-[3-(3-Chloro-4-cyanophenoxy)-2-cyclopropylmethoxymethylpropoxy]phenyl}hex-4-ynoic acid]
8490 nM	CC#CC(CC(=O)O)c1ccc(OCC(COc2ccc(C(F)(F)F)cc2)c2ccccc2)cc1 (centres unmarked) [Example 46, 3-{4-[2-Phenyl-3-(4-trifluoromethylphenoxy)propoxy]phenyl}hex-4-ynoic acid]
50 nM	CC#CC(CC(=O)O)c1ccc(OCCOc2cccc(C)c2)cc1 (centres unmarked) [Example 14, 3-{4-[2-m-Tolyloxyethoxy]phenyl}hex-4-ynoic acid]

SMILES	EC50
CC#CC(CC(=O)O)c1ccc(OCCCCOc2cccc(C(C)(C)C)c2)cc1 (centres unmarked) [Example 3, 3-{4-[4-(3-tert-Butylphenoxy)butoxy]phenyl}hex-4-ynoic acid]	350 nM
